From patent US20210177732A1, “COMBINATION OF EXTRACTS OF QUINQUINA AND OF LEONTOPODIUM ALPINUM AND OF THE MANGANESE SALT OF L-PYRROLIDONE CARBOXYLIC ACID IN THE TREATMENT OF ALOPECIA” (PIERRE FABRE DERMO-COSMETIQUE, priority 2018, published 2021)

B1: Wnt3a: positive control, Wnt3a protein at 10 nM (protein, UniProt P56704 19-352, looked up)
Protein Wnt-3a: SYPIWWSLAVGPQYSSLGSQPILCASIPGLVPKQLRFCRNYVEIMPSVAEGIKIGIQECQHQFRGRRWNCTTVHDSLAIFGPVLDKATRESAFVHAIASAGVAFAVTRSCAEGTAAICGCSSRHQGSPGKGWKWGGCSEDIEFGGMVSREFADARENRPDARSAMNRHNNEAGRQAIASHMHLKCKCHGLSGSCEVKTCWWSQPDFRAIGDFLKDKYDSASEMVVEKHRESRGWVETLRPRYTYFKVPTERDLVYYEASPNFCEPNPETGSFGTRDRTCNVSSHGIDGCDLLCCGRGHNARAERRREKCRCVFHWCCYVSCQECTRVYDVHTCK

Tested on: Wnt/β-catenin pathway
Test: Activation of the Wnt/β-catenin pathway, TCF/LEF luciferase reporter in dermal papilla cells derived from human hair follicles
Type: cell-based
Conditions: human follicular dermal papilla cells, 24 h incubation, Wnt3a 10 nM, Mn-PCA 500 μM, edelweiss 30 μg/mL; for Average RLU (luminescence due to luciferase expression): average of 3 donors (6 experiments), cinchona 10 μg/mL, combination at same concentrations, control 410.2; for activation of the Wnt-β-catenin pathway versus control: combination 10 μg/mL + 500 μM + 30 μg/mL
Experimental: The aim of this study is to evaluate the effects of the combination of an extract of cinchona, manganese salt of L-pyrrolidone carboxylic acid and an extract of Leontopodium alpinum on the activation of the Wnt/β-catenin pathway on dermal papilla cells derived from human hair follicles.
The studies are carried out on human cells derived from the dermal papillae of the follicles of three donors. The cells are inoculated in 96-well plates and cultured for 24 h with the necessary supplements. The cells are incubated with specific reagents in order to be transfected with a lentivirus (expressing the luciferase gene under the control of the Wnt/β-catenin promoter (TCF/LEF transcriptional response element). The transfected cells are incubated for 24 hours with the products to be tested, i.e. either with an extract of cinchona (10 μg/ml) diluted in DMSO, or with the manganese salt of L-pyrrolidone carboxylic acid (500 μM) diluted in water, or with an extract of Leontopodium alpinum (30 μg/ml) also diluted in water, or with the combination of the three compounds at the same concentrations as above. The cinchona used in this study is harvested in Ecuador, in the forests of Echeandia. The extract of Leontopodium alpinum tested in this study comes from a variety called Leontopodium alpinum Helvetia. The extract tested corresponds to the commercial material Alpaflor® from the supplier DSM. The manganese salt of L-pyrrolidone carboxylic acid tested in this study corresponds to the commercial material Mangalidone® from the supplier Solabia. It is obtained by cyclisation of glutamic acid of plant origin. Its INCI name is manganese PCA and its CAS number is 29193-02-2. A positive control (Wnt3a protein at 10 nM) is also tested. Activation of the Wnt/β-catenin pathway is highlighted by the quantification of luminescence due to luciferase expression.
A statistical analysis is performed, an intergroup comparison is made by a repeated measures ANOVA followed by Dunnett's post-test on the raw data.

Molecule | Average RLU (luminescence due to luciferase expression) [RLU] | activation of the Wnt-β-catenin pathway versus control
O=C1CC[C@@H](C(=O)[O-])N1.O=C1CC[C@@H](C(=O)[O-])N1.[Mn+2] [Mn-PCA (L), manganese salt of L-pyrrolidone carboxylic acid] | 735.2 | +77±17%
B1 | 2366.9 | +451±93%
